Source: ChEMBL document CHEMBL5465560, “Selectivity Literature for EUbOPEN Chemogenomic Library” (2024)
Blank lines part the entries; values can stand above or below the molecule they belong to.

How the values were obtained:
[1] = target: MAP/microtubule affinity-regulating kinase 3 (Homo sapiens) (UniProt P27448); conditions: at 10 µM
[2] = target: T1, Mitogen-activated protein kinase 13 (Homo sapiens) (UniProt O15264); experiment: Selectivity interaction (Ambit KINOMEscan and KiNATiv profiling in Jurkat cells) EUB0000090b MAPK13; type: cell-based; conditions: at 1 µM
T1 sequence (whole entry): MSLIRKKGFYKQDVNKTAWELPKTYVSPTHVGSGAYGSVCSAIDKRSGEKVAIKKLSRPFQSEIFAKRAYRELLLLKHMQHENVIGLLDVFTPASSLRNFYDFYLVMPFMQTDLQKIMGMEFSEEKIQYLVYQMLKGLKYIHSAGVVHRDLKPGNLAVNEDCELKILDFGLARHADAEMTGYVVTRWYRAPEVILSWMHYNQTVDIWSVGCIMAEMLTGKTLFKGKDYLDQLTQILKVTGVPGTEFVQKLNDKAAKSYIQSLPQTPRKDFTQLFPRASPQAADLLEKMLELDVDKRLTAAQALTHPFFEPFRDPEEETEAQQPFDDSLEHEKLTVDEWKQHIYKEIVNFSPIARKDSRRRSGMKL

[3] = target: Histone-lysine N-methyltransferase KMT5C (Homo sapiens) (UniProt Q86Y97); experiment: Selectivity interaction (Methyltransferase screen (Scintillation proximity assays)) EUB0000255b SUV420H2
[4] = target: Fibroblast growth factor receptor 1 (Homo sapiens, UniProt P11362); experiment: Selectivity interaction (Kinase panel (literature)) EUB0001199aCl FGFR1; conditions: at 1 µM
[5] = target: T2, Ephrin type-A receptor 3 (Homo sapiens) (UniProt P29320); experiment: Selectivity interaction (SelectScreen profiling (Invitrogen)) EUB0000607a EPHA3; conditions: at 2 µM
T2 sequence (whole entry): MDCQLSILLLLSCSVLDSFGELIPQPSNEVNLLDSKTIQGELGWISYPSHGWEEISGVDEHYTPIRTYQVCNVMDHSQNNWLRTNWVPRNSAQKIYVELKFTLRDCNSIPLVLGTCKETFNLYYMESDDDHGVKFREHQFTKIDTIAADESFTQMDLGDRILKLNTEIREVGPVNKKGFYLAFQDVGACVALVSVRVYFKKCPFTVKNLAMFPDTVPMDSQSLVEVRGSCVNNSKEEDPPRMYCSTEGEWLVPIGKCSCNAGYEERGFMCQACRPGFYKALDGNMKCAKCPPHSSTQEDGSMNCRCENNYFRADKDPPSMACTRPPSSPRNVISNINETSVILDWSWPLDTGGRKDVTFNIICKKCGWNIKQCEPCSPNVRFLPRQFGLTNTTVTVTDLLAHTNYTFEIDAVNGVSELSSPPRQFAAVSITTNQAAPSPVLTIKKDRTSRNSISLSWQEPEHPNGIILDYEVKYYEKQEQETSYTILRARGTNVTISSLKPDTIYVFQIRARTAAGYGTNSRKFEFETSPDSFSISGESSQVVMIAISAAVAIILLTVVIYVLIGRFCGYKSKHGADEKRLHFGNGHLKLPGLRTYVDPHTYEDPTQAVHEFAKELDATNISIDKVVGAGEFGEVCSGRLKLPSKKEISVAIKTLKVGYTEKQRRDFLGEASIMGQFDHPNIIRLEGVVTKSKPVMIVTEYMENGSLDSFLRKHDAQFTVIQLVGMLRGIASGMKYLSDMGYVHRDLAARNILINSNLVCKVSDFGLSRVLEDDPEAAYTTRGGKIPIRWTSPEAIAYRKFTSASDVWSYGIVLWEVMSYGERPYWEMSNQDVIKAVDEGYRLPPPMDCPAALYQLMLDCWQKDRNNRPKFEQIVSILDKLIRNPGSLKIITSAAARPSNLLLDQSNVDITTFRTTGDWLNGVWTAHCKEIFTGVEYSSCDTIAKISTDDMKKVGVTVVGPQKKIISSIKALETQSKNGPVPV

[6] = target: Calcium/calmodulin-dependent protein kinase type II subunit beta (Homo sapiens) (UniProt Q13554); experiment: Selectivity interaction (SelectScreen profiling (Invitrogen)) EUB0000607a CAMK2B; conditions: at 2 µM
[7] = target: Calcium/calmodulin-dependent protein kinase type II subunit delta (Homo sapiens) (UniProt Q13557); experiment: Selectivity interaction (ActivX KiNativ screen (kinase selectivity in THP-1 cell lysates)) EUB0000639a CAMK2D; type: subcellular; conditions: lysate, at 1 µM
[8] = target: Ribosomal protein S6 kinase alpha-3 (Homo sapiens, UniProt P51812); experiment: Selectivity interaction (ActivX KiNativ screen (kinase selectivity in THP-1 cell lysates)) EUB0000639a RPS6KA3; type: subcellular; conditions: lysate, at 0.2 µM
[9] = target: Cyclin-dependent kinase 2 (Homo sapiens, UniProt P24941); experiment: Selectivity interaction (ActivX KiNativ screen (kinase selectivity in THP-1 cell lysates)) EUB0000639a CDK2; type: subcellular; conditions: lysate, at 1 µM
[10] = target: Myosin light chain kinase, smooth muscle (Homo sapiens, UniProt Q15746); experiment: Selectivity interaction (Kinase panel (Invitrogen)) EUB0000639a MYLK; conditions: at 200 nM
[11] = target: T3, Receptor-interacting serine/threonine-protein kinase 1 (Homo sapiens) (UniProt Q13546); experiment: Selectivity interaction (KinomeScan (DiscoverX)) EUB0000092b RIPK1; conditions: at 10 µM
T3 sequence (whole entry): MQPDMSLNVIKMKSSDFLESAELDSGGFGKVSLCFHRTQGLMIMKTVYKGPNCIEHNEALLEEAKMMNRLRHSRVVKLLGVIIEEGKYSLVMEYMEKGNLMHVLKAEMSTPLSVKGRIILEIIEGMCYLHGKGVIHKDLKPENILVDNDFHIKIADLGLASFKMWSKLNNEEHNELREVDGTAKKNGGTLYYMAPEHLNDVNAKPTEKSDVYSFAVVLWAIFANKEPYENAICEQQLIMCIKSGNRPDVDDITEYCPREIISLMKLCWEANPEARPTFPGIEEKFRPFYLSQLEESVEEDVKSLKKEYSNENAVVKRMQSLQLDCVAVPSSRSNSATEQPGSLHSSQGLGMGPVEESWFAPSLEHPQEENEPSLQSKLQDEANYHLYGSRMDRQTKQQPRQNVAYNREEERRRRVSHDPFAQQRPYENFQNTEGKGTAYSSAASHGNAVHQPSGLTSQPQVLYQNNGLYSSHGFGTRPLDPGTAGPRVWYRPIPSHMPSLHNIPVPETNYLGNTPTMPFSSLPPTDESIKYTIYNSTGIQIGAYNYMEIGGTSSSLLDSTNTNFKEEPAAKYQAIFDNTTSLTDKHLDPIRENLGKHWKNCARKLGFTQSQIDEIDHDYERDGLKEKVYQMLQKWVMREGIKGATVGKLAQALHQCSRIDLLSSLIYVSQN

[12] = target: Tyrosine-protein kinase FRK (Homo sapiens) (UniProt P42685); experiment: Selectivity interaction (KinomeScan (DiscoverX)) EUB0000092b FRK; conditions: at 10 µM

Histone-lysine N-methyltransferase KMT5C (Homo sapiens), sequence (Q86Y97 whole entry, looked up): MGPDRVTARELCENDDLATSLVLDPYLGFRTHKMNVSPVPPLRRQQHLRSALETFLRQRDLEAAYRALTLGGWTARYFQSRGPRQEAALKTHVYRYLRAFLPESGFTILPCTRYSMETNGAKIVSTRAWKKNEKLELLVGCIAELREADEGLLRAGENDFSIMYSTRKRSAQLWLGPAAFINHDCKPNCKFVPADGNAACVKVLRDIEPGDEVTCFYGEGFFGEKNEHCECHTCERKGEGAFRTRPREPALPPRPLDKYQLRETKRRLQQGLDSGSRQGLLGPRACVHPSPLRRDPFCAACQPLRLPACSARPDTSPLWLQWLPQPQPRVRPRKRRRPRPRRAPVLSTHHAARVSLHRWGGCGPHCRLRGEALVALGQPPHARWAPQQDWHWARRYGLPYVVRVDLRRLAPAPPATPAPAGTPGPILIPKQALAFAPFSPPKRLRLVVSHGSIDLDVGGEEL
Calcium/calmodulin-dependent protein kinase type II subunit delta (Homo sapiens), sequence (Q13557 whole entry): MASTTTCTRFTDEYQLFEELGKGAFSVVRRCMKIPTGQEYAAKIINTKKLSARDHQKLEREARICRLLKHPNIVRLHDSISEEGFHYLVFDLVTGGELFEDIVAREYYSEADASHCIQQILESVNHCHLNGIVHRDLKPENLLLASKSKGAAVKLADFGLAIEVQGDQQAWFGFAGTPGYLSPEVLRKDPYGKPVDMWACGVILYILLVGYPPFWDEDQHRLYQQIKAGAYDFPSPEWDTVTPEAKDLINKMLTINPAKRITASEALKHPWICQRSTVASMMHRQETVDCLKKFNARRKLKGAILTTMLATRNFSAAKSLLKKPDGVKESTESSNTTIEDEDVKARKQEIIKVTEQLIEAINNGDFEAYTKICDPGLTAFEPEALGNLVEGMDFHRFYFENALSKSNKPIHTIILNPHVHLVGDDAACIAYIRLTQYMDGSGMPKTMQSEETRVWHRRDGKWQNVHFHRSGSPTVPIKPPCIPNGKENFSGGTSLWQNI
Myosin light chain kinase, smooth muscle, sequence (Q15746 whole entry): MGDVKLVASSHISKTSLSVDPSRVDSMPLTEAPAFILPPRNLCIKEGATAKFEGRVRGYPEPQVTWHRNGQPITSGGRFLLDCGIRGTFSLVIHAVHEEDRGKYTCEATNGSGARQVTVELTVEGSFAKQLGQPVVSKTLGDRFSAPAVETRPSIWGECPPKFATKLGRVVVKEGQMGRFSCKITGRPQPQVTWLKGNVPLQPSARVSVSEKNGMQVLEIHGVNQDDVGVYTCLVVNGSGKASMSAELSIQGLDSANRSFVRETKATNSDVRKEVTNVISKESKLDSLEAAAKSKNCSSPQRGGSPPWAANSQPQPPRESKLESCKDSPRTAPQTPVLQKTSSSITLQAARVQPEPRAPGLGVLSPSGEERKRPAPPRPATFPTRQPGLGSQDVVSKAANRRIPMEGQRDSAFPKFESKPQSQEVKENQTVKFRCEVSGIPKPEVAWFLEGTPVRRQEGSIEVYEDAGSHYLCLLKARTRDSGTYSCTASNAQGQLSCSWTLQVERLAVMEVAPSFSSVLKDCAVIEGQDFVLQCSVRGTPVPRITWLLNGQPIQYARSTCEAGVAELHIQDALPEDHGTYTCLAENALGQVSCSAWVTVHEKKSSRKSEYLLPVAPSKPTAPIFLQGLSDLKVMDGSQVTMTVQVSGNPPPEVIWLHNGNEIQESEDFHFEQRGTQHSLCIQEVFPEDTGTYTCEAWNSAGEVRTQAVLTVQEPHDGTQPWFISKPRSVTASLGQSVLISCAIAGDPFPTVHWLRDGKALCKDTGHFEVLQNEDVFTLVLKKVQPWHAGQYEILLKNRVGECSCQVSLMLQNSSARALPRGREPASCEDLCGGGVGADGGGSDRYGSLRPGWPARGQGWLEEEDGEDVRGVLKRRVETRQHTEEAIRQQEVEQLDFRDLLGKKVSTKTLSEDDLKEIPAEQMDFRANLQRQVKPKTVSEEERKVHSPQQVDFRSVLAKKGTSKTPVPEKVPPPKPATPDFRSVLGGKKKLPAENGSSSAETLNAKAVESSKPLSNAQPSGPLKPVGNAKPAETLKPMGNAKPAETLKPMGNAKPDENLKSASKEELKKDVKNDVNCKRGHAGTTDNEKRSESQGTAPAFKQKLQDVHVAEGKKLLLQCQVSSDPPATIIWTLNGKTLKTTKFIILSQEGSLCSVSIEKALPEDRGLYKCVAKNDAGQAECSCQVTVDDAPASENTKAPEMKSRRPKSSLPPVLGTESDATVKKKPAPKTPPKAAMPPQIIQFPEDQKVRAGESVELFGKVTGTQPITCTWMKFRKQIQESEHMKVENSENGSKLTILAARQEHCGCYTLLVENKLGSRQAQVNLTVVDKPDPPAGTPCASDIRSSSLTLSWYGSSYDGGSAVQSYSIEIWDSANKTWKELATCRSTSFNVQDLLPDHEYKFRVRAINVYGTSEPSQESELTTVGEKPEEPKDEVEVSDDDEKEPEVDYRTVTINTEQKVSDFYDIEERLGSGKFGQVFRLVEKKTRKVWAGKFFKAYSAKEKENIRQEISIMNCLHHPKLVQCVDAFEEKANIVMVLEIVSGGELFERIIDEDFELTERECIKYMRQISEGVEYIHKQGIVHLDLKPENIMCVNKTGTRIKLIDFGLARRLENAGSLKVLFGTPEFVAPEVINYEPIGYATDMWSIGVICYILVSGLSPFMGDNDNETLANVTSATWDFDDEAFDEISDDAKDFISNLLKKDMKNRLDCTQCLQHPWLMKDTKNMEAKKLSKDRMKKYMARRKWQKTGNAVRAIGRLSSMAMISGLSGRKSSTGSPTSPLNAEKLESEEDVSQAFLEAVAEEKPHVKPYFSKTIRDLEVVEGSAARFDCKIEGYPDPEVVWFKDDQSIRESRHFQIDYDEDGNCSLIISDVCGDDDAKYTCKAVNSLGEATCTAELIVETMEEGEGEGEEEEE
Calcium/calmodulin-dependent protein kinase type II subunit beta (Homo sapiens), sequence (Q13554 whole entry): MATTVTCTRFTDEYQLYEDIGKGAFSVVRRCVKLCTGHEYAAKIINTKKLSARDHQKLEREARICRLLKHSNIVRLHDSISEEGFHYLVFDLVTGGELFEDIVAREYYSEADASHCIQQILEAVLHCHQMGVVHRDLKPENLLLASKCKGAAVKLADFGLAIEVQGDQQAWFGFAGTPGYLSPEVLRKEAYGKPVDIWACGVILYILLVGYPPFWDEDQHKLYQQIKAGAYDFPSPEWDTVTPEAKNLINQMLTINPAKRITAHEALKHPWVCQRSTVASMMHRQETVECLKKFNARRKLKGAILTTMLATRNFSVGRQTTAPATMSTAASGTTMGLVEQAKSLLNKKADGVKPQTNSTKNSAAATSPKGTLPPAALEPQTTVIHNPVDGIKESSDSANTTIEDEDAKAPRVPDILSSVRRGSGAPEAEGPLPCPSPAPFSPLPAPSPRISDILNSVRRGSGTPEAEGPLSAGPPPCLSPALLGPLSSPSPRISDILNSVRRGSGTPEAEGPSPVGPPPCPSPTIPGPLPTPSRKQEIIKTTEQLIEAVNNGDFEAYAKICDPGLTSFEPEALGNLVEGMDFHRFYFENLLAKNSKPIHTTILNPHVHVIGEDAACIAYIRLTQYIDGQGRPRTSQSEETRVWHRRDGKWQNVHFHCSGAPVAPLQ
Fibroblast growth factor receptor 1, sequence (P11362 22-822 limits assumed): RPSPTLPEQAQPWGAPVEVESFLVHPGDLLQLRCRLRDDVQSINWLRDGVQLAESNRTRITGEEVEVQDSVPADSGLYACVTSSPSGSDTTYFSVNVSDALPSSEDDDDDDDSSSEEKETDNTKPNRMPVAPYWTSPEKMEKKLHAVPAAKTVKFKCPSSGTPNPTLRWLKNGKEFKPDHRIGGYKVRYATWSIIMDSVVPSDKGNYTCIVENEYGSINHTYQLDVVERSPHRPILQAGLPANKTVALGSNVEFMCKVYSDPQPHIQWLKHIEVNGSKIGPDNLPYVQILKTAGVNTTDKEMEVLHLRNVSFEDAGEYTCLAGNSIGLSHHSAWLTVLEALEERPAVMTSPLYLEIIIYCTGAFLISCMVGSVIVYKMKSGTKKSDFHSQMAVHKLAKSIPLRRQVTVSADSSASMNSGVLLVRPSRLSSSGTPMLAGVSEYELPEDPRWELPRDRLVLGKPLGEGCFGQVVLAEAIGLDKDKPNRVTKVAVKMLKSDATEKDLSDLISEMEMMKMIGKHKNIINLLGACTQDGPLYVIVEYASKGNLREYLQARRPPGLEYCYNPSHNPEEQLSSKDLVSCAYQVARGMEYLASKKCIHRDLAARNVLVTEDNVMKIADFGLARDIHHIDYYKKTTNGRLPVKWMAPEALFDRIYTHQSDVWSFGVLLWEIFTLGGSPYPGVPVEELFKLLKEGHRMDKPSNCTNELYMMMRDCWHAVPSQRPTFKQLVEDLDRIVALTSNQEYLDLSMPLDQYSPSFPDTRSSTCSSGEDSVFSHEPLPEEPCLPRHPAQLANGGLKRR
Ribosomal protein S6 kinase alpha-3, sequence (P51812 whole entry): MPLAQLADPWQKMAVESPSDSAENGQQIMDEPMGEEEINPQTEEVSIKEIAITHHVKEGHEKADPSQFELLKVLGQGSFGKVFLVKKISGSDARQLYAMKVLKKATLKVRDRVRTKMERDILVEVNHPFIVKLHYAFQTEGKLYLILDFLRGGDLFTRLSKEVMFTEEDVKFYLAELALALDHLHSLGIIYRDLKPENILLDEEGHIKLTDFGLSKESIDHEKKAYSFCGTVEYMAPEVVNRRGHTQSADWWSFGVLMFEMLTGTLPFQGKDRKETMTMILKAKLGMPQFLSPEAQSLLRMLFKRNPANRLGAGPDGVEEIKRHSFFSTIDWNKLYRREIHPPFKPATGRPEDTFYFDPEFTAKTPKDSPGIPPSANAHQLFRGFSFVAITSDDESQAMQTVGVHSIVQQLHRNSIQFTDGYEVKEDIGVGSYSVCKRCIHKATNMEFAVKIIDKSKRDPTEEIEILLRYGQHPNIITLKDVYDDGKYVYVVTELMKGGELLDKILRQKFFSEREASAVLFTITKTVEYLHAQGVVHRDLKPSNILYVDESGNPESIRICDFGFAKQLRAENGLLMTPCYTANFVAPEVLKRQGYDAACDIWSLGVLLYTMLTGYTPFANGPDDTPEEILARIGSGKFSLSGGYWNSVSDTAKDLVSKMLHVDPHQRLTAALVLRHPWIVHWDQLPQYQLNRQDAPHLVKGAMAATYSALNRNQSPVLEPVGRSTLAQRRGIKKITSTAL

% of control [1]: 100%
SMILES: CCN(CC)CCCCNc1ncc2cc(-c3cc(OC)cc(OC)c3)c(NC(=O)NC(C)(C)C)nc2n1

SMILES: CN(C)C/C=C/C(=O)Nc1ccc(C(=O)N2CCCC(Nc3ncc(Cl)c(-c4c[nH]c5ccccc45)n3)C2)cc1 (stereo not drawn)
% of control [2]: 85%

SMILES: COCCN1CCC(c2cc(CN(C)C(=O)c3cccc(Oc4ccccc4)c3)ccn2)CC1
% activity ([3]; at 1 µM): > 95%
% activity ([3]; at 10 µM): > 90%

% of inhibition [4]: 3%
SMILES: CN1Cc2nccc(-c3cn(C)nc3-c3ccc(F)cc3)c2C1=O

SMILES: CNC(=O)Nc1ccc(-c2nc(N3CC4CCC(C3)O4)c3cnn(C4CCC5(CC4)OCCO5)c3n2)cc1
% of inhibition [5]: 4%
% of inhibition [6]: 8%

% of inhibition [7]: 25.1%
% of inhibition [8]: -3.7%
% of inhibition [9]: -10.5%
% of inhibition [10]: 1%
SMILES: CC[C@@H]1[C@H](F)C(=O)N[C@@H]1COc1nccc2cc(C(N)=O)c(OC)cc12 [ZIMLOVISERTIB]

SMILES: CCC(=O)N1CCN(c2ccc(-n3c(=O)ccc4cnc5ccc(-c6cnc7ccccc7c6)cc5c43)cc2C(F)(F)F)CC1
% of control [11]: 1.9%
% of control [12]: 60%
